Experimental data taken from PMC7875911 (Frontiers in Pharmacology, 2021).
Several values for one entry are separate records, joined by “and”; a condition that tells them apart may be missing. Equal values may be shown once. Read-outs that look alike come from different tables or passages of the source.

Tests used:
rCav2.2 = assay: Whole-cell patch clamp, recombinant rCav2.2 in HEK293; type: cell-based, rat; conditions: 10 µM
Experimental: (§1) Human embryonic kidney (HEK293T) cells containing the SV40 Large T-antigen were cultured at 37°C, 5% CO2 in Dulbecco’s Modified Eagle’s Medium (DMEM, Invitrogen Life Technologies, Australia), supplemented with 10% fetal bovine serum (FBS, Bovigen, Australia), 1% GlutaMAX and penicillin-streptomycin (Invitrogen, Australia). […]
(§2) Depolarization-activated Ca^2+ currents (ICa) in transfected HEK293 cells were recorded in the whole-cell patch clamp configuration. Data were recorded using a MultiClamp 700B amplifier, digitized with a DigiData1440 and controlled using Clampex10.7 software (Molecular Devices, United States). […]
(§3) Statistical significance (p < 0.05) was determined using unpaired Student’s t-test or 1-way ANOVA followed by a Tukey multiple comparison. […]
(§4) Numerous HVA Cav channel isoforms are present in rat DRG neurons. […] We transiently co-transfected the individual Cav channel α-subunits of interest together with β3 and α2δ1 subunits in HEK293 cells and measured whole-cell I Ca currents by patch clamp. […]

[1] = tested on: mouse models of acute postsurgical pain; conditions: in vivo; cited from earlier work
hCav2.2 = target: T1, hCav2.2 (Homo sapiens, UniProt Q00975); assay: cell-based
T1 construct: expressed in transfected cells; host or cells: HEK293 (HEK293T), transient calcium phosphate co-transfection
Experimental: Human embryonic kidney (HEK293T) cells containing the SV40 Large T-antigen were cultured at 37°C, 5% CO2 in Dulbecco’s Modified Eagle’s Medium (DMEM, Invitrogen Life Technologies, Australia), supplemented with 10% fetal bovine serum (FBS, Bovigen, Australia), 1% GlutaMAX and penicillin-streptomycin (Invitrogen, Australia). HEK293 cells were then transiently co-transfected with the different voltage-gated calcium channel isoforms and green fluorescent protein (GFP) for visualization, using the calcium phosphate method. cDNAs encoding mCav1.2 (a gift from Dr. D. Lipscombe; Addgene plasmid #26572) ([Helton et al., 2005]), rCav1.3 (a gift from Dr. D. Lipscombe; Addgene plasmid # 49,333) ([Xu and Lipscombe, 2001]), hCav2.1 (a gift from Dr. J. Striessnig), rCav2.2 (a gift from Dr. D. Lipscombe), hCav2.2 (a gift from Dr. D. Yue), hCav2.3 (purchased from GenScript United States Inc.) were co-transfected with β3, α2δ1 and GFP. After transfection, cells were plated on 12 mm cover glass and transferred to a 30°C incubator for 1–3 days.
Depolarization-activated Ca^2+ currents (ICa) in transfected HEK293 cells were recorded in the whole-cell patch clamp configuration. Data were recorded using a MultiClamp 700B amplifier, digitized with a DigiData1440 and controlled using Clampex10.7 software (Molecular Devices, United States). Currents were sampled at 100 kHz and filtered to 10 kHz, with leak and capacitive currents subtracted using a −P/4 protocol. […] Intracellular recording solution contained as follows (mM): 140 KGluconate, 5 NaCl, 2 MgCl2, 5 EGTA and 10 HEPES, pH 7.2 with KOH. Cells were continuously perfused with extracellular solution at a rate of ∼1.2 ml/min. […]
as §3, §4

[2] = tested on: TTXs-I Na in small-diameter IB4 ^− DRG neurons; conditions: cited from earlier work
mCav1.2 = assay: Whole-cell patch clamp, recombinant mCav1.2 in HEK293; type: cell-based, mouse; conditions: 10 µM
Experimental: as §1, §2, §3, §4

[3] = tested on: Cav1.2, Cav1.3, Cav2.1, and Cav2.2
Experimental: as §1, §2, §3, §4

[4] = tested on: HVA I Ca in small-diameter IB4 ^− DRG neurons; assay: cells
Experimental: Spinal level L3–L5 DRG were removed and placed in ice-cold HEPES-buffered saline (HBS) composed of (in mM): 154 NaCl, 2.5 KCl, 1.8 CaCl2, 1.5 MgCl2, 10 HEPES, and 10 glucose (pH 7.4, 330 ± 5 mOsm). Iridectomy scissors were utilized to cut up ganglia before incubation at 37°C for 15 min in oxygenated HBS containing 5 mg ml^−1 collagenase type 2 (Worthington Biochemical Corp, Lakewood, NJ, United States) followed by 25 min in oxygenated HBS containing 1 mg ml^−1 papain (Worthington Biochemical Corp). […] After enzyme treatment, ganglia were placed in 3 ml of HBS following two room temperature HBS washes. Ganglia were then triturated through fire-polished Pasteur pipettes with decreasing bores to extract cells. Finally, the cells mixed in HBS were plated onto surface modified culture dishes (Corning Primaria™ easy grip). […] DRG cells were pre-treated with 1 μg ml^−1 Alexa Fluor 488-conjugated Bandeiraea simplicifolia IB4 (Invitrogen) for 5 min at room temperature and washed with HBS for 5 min before fluorescence was examined on the inverted microscope (Olympus, IX50) used for patch clamp recordings.
Cell size was determined from an eyepiece graticule. Whole-cell electrophysiology was conducted at room temperature (22–24°C) in culture dishes perfused with room temperature HBS. The intracellular pipette solution contained (mM): 120 CsCl, 10 HEPES, 10 EGTA, 2 CaCl2, 5 MgATP, 5 Na2GTP, 5 NaCl; pH 7.3 (CsOH); 285 ± 5 mos mol l^−1.
An EPC-9 patch-clamp amplifier and corresponding PULSE software from HEKA Electronik (Lambrecht/Pfalz, Germany) were used to make recordings. Currents were sampled at 50 kHz and recorded on a hard disk. Borosilicate glass from AM Systems, Everett, WA, United States were used for patch pipettes. The input resistance of the pipettes ranged from 2 to 4 MΩ. […] A built-in procedure of the HEKA amplifier compensated for the capacitive transient currents. A −P/6 protocol was utilized to subtract leak current online. I Ca was generated with the recording protocol which included a depolarization from a holding potential of −80 mV to 0 mV for 10 ms every 30 s. I Na was generated through a recording protocol which included a step depolarization from a holding potential of −80 mV to 0 mV for 10 ms at a frequency of 0.1 Hz. Cells were perfused with the test compound via a pressure driven perfusion system (AutoMate Scientific, United States).
All data analysis and graphs were generated in OriginPro (Origin Lab Corporation, United States). […] Activation and SSI curves were fit by the modified Boltzmann equation: I or G=1/(1+exp(Vm−V0.5/ka)) Where I is the current or G is the conductance, Vm is the pre-pulse potential, V 0.5 is the half-maximal activation potential and ka is the slope factor.
Statistical significance (p < 0.05) was determined using unpaired Student’s t-test or 1-way ANOVA followed by a Tukey multiple comparison. All data is presented as mean ± SEM (n), where n is individual cells.

hCav2.1 = assay: Whole-cell patch clamp, recombinant hCav2.1 in HEK293; type: cell-based, human; conditions: 10 µM
Experimental: as §1, §2, §3, §4

[5] = tested on: c-fibre evoked excitatory post-synaptic currents; conditions: cited from earlier work

T1 sequence (P54289 25-956): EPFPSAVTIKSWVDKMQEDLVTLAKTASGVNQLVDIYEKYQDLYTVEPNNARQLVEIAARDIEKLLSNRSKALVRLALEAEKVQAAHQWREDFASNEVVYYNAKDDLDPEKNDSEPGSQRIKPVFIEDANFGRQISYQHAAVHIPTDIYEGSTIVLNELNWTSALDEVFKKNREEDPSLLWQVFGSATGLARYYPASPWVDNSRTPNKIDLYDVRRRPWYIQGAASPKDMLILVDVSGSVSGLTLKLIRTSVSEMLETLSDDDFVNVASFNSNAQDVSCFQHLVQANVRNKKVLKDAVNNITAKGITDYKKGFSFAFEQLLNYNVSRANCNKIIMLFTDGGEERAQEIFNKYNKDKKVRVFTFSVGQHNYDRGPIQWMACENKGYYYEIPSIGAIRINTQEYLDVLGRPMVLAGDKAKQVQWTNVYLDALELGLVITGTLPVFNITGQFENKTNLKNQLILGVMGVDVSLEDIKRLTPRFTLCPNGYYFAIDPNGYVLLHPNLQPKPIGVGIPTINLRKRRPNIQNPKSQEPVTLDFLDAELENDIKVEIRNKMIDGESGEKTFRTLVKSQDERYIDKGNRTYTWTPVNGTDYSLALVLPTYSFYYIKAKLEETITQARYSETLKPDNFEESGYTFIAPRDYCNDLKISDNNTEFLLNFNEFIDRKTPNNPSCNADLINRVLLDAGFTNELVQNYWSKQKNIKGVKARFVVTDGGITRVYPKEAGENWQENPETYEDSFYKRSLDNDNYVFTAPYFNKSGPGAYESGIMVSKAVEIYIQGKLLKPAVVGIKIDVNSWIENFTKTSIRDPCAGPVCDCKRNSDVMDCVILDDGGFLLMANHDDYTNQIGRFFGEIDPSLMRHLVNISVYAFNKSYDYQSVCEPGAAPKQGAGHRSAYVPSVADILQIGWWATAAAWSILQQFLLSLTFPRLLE
T1 sequence (P54289 957-1103): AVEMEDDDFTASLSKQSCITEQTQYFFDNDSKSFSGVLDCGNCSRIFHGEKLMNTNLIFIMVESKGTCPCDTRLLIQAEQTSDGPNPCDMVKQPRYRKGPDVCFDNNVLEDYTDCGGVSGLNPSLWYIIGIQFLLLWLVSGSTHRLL
T1 sequence (Q00975 whole entry): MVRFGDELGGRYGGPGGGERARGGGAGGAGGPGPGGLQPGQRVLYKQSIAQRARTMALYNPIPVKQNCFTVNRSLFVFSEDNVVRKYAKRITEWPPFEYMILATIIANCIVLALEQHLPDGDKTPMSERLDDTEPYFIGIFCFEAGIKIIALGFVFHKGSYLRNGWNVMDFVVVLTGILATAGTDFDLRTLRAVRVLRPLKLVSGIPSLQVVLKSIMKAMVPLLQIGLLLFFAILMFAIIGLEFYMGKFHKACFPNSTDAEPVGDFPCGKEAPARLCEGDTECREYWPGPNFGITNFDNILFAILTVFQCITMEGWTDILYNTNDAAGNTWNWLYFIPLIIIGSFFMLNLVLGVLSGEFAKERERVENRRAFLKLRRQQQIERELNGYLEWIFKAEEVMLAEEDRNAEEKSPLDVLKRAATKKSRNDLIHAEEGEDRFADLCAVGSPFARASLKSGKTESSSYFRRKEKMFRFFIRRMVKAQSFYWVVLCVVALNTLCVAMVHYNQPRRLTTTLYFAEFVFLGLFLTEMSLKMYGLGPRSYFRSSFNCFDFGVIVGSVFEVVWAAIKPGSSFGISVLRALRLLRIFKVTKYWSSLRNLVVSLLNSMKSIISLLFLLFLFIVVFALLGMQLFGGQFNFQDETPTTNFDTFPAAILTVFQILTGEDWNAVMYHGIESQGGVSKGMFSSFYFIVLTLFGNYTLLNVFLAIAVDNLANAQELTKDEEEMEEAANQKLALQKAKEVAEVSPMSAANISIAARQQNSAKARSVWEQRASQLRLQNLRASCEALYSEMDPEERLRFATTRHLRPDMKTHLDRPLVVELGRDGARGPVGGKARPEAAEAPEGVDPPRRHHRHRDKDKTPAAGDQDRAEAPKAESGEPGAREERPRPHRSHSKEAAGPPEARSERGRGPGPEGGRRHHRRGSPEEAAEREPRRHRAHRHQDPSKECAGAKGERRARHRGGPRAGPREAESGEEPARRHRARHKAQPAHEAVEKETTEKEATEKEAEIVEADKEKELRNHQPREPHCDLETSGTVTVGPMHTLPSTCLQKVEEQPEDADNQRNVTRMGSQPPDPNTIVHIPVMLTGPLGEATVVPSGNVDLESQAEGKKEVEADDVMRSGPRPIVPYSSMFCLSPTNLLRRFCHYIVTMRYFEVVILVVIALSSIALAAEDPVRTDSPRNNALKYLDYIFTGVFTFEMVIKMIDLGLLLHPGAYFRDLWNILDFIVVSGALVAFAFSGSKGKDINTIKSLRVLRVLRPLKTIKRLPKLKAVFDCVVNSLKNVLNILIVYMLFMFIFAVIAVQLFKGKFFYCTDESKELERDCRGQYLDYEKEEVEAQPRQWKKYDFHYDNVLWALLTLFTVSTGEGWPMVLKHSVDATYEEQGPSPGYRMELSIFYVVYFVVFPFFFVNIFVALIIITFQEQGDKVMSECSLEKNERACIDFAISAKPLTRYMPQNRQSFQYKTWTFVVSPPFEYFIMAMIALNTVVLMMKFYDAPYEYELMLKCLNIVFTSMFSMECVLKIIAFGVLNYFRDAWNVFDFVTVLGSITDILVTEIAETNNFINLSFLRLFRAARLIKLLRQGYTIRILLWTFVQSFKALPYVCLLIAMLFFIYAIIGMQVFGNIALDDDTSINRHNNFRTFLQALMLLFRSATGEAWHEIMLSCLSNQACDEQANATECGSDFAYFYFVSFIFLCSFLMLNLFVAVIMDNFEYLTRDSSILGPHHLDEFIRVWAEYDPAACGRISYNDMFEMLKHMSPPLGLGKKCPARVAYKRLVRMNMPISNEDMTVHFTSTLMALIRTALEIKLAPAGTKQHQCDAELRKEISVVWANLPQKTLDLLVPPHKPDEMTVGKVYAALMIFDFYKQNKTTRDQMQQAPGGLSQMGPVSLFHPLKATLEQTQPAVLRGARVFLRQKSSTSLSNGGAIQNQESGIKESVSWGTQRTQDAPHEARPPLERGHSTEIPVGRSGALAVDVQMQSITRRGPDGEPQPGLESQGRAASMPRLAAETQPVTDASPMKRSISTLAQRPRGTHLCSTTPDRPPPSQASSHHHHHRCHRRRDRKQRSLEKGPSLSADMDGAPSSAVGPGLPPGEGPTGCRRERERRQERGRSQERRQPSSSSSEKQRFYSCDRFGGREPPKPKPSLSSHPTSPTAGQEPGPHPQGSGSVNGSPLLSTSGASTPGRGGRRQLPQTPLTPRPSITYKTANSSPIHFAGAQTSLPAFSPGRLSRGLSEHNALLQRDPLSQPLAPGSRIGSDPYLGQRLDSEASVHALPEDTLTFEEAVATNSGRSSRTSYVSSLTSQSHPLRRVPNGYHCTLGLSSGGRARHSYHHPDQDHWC
T1 sequence (P54284 whole entry, further chain): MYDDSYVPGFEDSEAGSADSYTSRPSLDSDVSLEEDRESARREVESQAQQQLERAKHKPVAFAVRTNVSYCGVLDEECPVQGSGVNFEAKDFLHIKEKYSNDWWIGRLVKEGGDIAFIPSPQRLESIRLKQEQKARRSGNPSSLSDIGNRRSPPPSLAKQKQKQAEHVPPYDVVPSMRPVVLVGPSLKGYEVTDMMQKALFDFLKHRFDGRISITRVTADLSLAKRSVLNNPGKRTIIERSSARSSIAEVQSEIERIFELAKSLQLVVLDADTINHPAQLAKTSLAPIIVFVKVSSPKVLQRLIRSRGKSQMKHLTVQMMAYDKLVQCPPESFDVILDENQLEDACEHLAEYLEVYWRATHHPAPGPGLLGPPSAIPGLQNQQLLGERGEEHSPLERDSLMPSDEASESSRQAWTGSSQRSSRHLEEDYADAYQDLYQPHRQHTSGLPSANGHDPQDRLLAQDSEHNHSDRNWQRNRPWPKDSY

**Q.** Which “inhibition of rat Cav2.2-mediated current” value (rCav2.2) does the source give for `CSCC[C@@H]1NC(=O)[C@H](Cc2ccc(O)cc2)NC(=O)[C@H](CCCNC(=N)N)NC(=O)[C@@H](NC(=O)[C@@H](N)CC(=O)O)CSSC[C@@H]2NC(=O)[C@@H]3CSSC[C@@H](C(=O)N[C@@H](C)C(=O)N[C@@H](Cc4c[nH]c5ccccc45)C(=O)N[C@@H](CC(=O)O)C(=O)N[C@@H](Cc4ccccc4)C(=O)N[C@H](C(=O)N[C@@H](Cc4ccccc4)C(=O)N[C@H](C(=O)O)[C@@H](C)O)[C@@H](C)O)NC(=O)[C@H](Cc4ccc(O)cc4)NC(=O)[C@H](CCCCN)NC(=O)[C@H](CCSC)NC(=O)[C@H](CCCCN)NC(=O)[C@H](CCCNC(=N)N)NC(=O)[C@H](CCCCN)NC(=O)[C@H](CSSC[C@H](NC(=O)[C@H](CC(=O)O)NC(=O)CNC(=O)[C@H](Cc4ccccc4)NC1=O)C(=O)N[C@@H](CCC(=O)O)C(=O)N[C@@H](CCCCN)C(=O)N[C@@H](CC(=O)O)C(=O)N[C@@H](CCC(=O)O)C(=O)N[C@@H](CC(=O)O)C(=O)N3)NC(=O)CNC(=O)[C@H](CC(C)C)NC(=O)[C@H](Cc1c[nH]cn1)NC(=O)[C@H](CCCCN)NC2=O` [Pn3a, µ-Theraphotoxin-Pn3a] here?
**A.** Its value is 69.5 ± 1.0%.

**Q.** What about the “antinociceptive behavior in acute postsurgical pain (in words)” value [1] of the same molecule?
**A.** Its value is “causes antinociceptive behavior”.

**Q.** What about the “Hill coefficient n H” value (hCav2.2) of the same molecule?
**A.** Its value is 1.16 ± 0.07.

**Q.** What about the “effect on depolarization-activated hCav2.2 current kinetics (in words)” value (hCav2.2) of the same molecule?
**A.** Its value is “not altered”.

**Q.** What about the inhibition at 10 µM (hCav2.2; HEK293, read-out: inhibition of human Cav2.2-mediated current) of the same molecule?
**A.** The inhibition at 10 µM was 71.8 ± 0.6%.

**Q.** And the “suppression of TTXs-I Na (in words)” value [2]?
**A.** The value was “strongly suppress”.

**Q.** What about the “inhibition of Cav1.2-mediated current” value (mCav1.2) of the same molecule?
**A.** Its value is 70.3 ± 1.5%.

**Q.** And the “reversibility of block on washout” value [3]?
**A.** Its value is “fully reversible upon washout”.

**Q.** What about the “HVA I Ca spared” value [4] of the same molecule?
**A.** The value was “half”.

**Q.** And the “inhibition of HVA I Ca” value [4]?
**A.** The value was 4.45 ± 0.78%.

**Q.** What about the “suppression of I Ca” value [4] of the same molecule?
**A.** Its value is 13.97 ± 1.39%.

**Q.** What about the “inhibition of HVA I Ca” value ([4]; 10 µM) of the same molecule?
**A.** The value was ~55% and 56.5 ± 1.9%.

**Q.** And the “inhibition of Cav2.1-mediated current” value (hCav2.1)?
**A.** The value was 58.0 ± 1.8%.

**Q.** And the “effect on c-fibre evoked excitatory post-synaptic currents (in words)” value [5]?
**A.** Its value is “reduce c-fibre evoked excitatory post-synaptic currents”.
